Patent US20050113450A1, “Antibacterial agents” (priority 2002, published 2005)
Converted amounts (≈) assume the structure as drawn.

Tested on: SA 9218
Assay: MIC by standard agar dilution method
Type: cell-based
Conditions: Mueller Hinton agar, 10^4 to 10^5 cells per spot, incubated overnight at 35° C., lowest concentration that inhibits visible growth
Method in brief: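 Agar dilution: two-fold compound dilutions mixed into molten Mueller Hinton agar, spots of ~10^4–10^5 cells from 0.5 McFarland suspension diluted 1:20 in TSB. Incubated overnight at 35 °C; MIC is lowest concentration inhibiting visible growth.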

Question: Which MIC does the source give for `O=C(Nc1ccc(Br)cc1C(=O)O)c1ccc(Br)c(S(=O)(=O)NC2Cc3ccccc3C2)c1` here?
Answer: Its MIC is 64 µg/mL (≈ 108 µM).

Question: `O=C(O)c1cc(Br)ccc1NC(=O)c1cccc2c1C(=O)c1ccccc1-2` was tested. Which MIC did it give?
Answer: Its MIC is greater than 128 µg/mL.

Question: How did the MIC turn out when `COc1cc(Br)c(C(=O)Nc2ccc(Br)cc2C(=O)O)cc1OC` was run?
Answer: The MIC was greater than 128 µg/mL.

Question: For `CCCOc1ccc(C(=O)Nc2ccc(Br)cc2C(=O)O)cc1`, which MIC is on record?
Answer: Its MIC is 64 µg/mL (≈ 169 µM).

Question: For `O=Cc1cccc(C(=O)Nc2ccc(Br)cc2C(=O)O)c1`, which MIC is on record?
Answer: Its MIC is greater than 128 µg/mL.

Question: `CC(=O)Oc1cccc(C(=O)Nc2ccc(Br)cc2C(=O)O)c1` was tested. Which MIC did it give?
Answer: The MIC was 128 µg/mL (≈ 338 µM).

Question: How did the MIC turn out when `COc1ccc(C(=O)Nc2ccc(Br)cc2C(=O)O)cc1F` was run?
Answer: Its MIC is 16 µg/mL (≈ 43.5 µM).

Question: `COc1ccc(Br)c(C(=O)Nc2ccc(Br)cc2C(=O)O)c1` was tested. Which MIC did it give?
Answer: The MIC was 128 µg/mL (≈ 298 µM).

Question: How did the MIC turn out when `O=C(Nc1ccc(Br)cc1C(=O)O)c1ccc2c(c1)S(=O)(=O)c1ccccc1C2=O` was run?
Answer: The MIC was 16 µg/mL (≈ 32.9 µM).

Question: For `Cc1ccc(F)cc1C(=O)Nc1ccc(Br)cc1C(=O)O`, which MIC is on record?
Answer: Its MIC is 64 µg/mL (≈ 182 µM).

Question: `COc1ccc([N+](=O)[O-])c(C(=O)Nc2ccc(Br)cc2C(=O)O)c1` was tested. Which MIC did it give?
Answer: The MIC was greater than 128 µg/mL.

Question: For `O=C(Nc1ccc(Br)cc1C(=O)O)c1cc(C(F)(F)F)ccc1Cl`, which MIC is on record?
Answer: The MIC was greater than 128 µg/mL.

Question: How did the MIC turn out when `N#Cc1ccc(NC(=O)c2cccc(O)c2)c(C(=O)O)c1` was run?
Answer: Its MIC is 32 µg/mL (≈ 113 µM).

Question: For `CCN(CC)C(=O)c1c(F)ccc(F)c1C(=O)Nc1ccc(Br)cc1C(=O)O`, which MIC is on record?
Answer: Its MIC is greater than 128 µg/mL.

Question: How did the MIC turn out when `O=C(Nc1ccc(Br)cc1C(=O)O)c1cc(S(=O)(=O)Nc2ccc3c(c2)OCCO3)c(F)cc1Cl` was run?
Answer: Its MIC is 128 µg/mL (≈ 219 µM).

Question: How did the MIC turn out when `O=C(Nc1ccc(Br)cc1C(=O)O)c1ccc(OC(F)F)cc1` was run?
Answer: Its MIC is 64 µg/mL (≈ 166 µM).

Question: With `O=C(Nc1ccc(Br)cc1C(=O)O)c1cc(S(=O)(=O)Nc2ccc(Cl)cc2)ccc1Br` as the compound, how does the MIC read?
Answer: Its MIC is 4 µg/mL (≈ 6.8 µM).

Question: `O=C(Nc1ccc(-c2ccccc2)cc1C(=O)O)c1ccc(S(=O)(=O)N2CCc3ccccc32)cc1` [L-217792] was tested. Which MIC did it give?
Answer: The MIC was 8 µg/mL (≈ 16 µM).

Question: Which MIC does the source give for `CN(c1ccc(Cl)cc1)S(=O)(=O)c1cccc(C(=O)Nc2ccc(C(F)(F)F)cc2C(=O)O)c1` [PHA-500334] here?
Answer: Its MIC is 16 µg/mL (≈ 31.2 µM).

Question: `O=C(Nc1ccc(Br)cc1C(=O)O)c1cccc(CSc2ccccc2)c1` [PHA-501684] was tested. Which MIC did it give?
Answer: Its MIC is 1 µg/mL (≈ 2.26 µM).

Question: Which “SA 9218 MIC” value does the source give for `O=C(Nc1ccc(Br)cc1C(=O)O)c1cccc(OCc2ccccc2)c1` [PHA-501685] here?
Answer: Its value is 2 µg/mL.

Question: How did the MIC turn out when `CCSc1cccc(C(=O)Nc2ccc(Br)cc2C(=O)O)c1` [PHA-501748] was run?
Answer: The MIC was 2 µg/mL (≈ 5.26 µM).

Question: For `Cl.O=C(Nc1ccc(Br)cc1C(=O)O)c1cccc(SCc2ccncc2)c1` [PHA-502339A], which MIC is on record?
Answer: Its MIC is 8 µg/mL.

Question: With `O=C(Nc1ccc(Br)cc1C(=O)O)c1cccc(SCc2ccncc2)c1` [PHA-502339] as the compound, how does the MIC read?
Answer: The MIC was 2 µg/mL (≈ 4.51 µM).

Question: For `COc1cccc(C(=O)Nc2ccc(Br)cc2C(=O)O)c1` [PHA-504639], which MIC is on record?
Answer: The MIC was 4 µg/mL (≈ 11.4 µM).

Question: With `CN(c1ccc(Cl)cc1)S(=O)(=O)c1cc(Br)cc(C(=O)Nc2ccc(Cl)cc2C(=O)O)c1` [PHA-509059] as the compound, how does the MIC read?
Answer: The MIC was 0.5 µg/mL (≈ 0.896 µM).

Question: Which MIC does the source give for `O=C(Nc1ccc(Br)cc1C(=O)O)c1cccc(Oc2ccccc2)c1` [PHA-513535] here?
Answer: The MIC was 2 µg/mL (≈ 4.85 µM).

Question: `CS(=O)(=O)c1cccc(C(=O)Nc2ccc(Br)cc2C(=O)O)c1` [PHA-513541] was tested. Which MIC did it give?
Answer: Its MIC is 64 µg/mL (≈ 161 µM).

Question: `O=C(Nc1ccc(Br)cc1C(=O)O)c1cccc(C(=O)c2ccccc2)c1` [PHA-515448] was tested. Which MIC did it give?
Answer: The MIC was 2 µg/mL (≈ 4.71 µM).

Question: With `CN(c1ccc(Cl)cc1)S(=O)(=O)c1cc(C(=O)Nc2ccc(Br)cc2C(=O)O)cc([N+](=O)[O-])c1` [PHA-515583] as the compound, how does the MIC read?
Answer: Its MIC is 8 µg/mL (≈ 14.1 µM).

Question: Which MIC does the source give for `O=C(Nc1ccc(Br)cc1C(=O)O)c1cc(Br)cc(S(=O)(=O)N2CCc3cc(Br)ccc32)c1` [PHA-515585] here?
Answer: The MIC was 1 µg/mL (≈ 1.52 µM).

Question: For `CN(c1ccccn1)S(=O)(=O)c1ccc(C(=O)Nc2ccc(Br)cc2C(=O)O)cc1` [PHA-516112], which MIC is on record?
Answer: The MIC was 8 µg/mL (≈ 16.3 µM).

Question: How did the MIC turn out when `CN(c1ccccc1N)S(=O)(=O)c1ccc(C(=O)Nc2ccc(Br)cc2C(=O)O)cc1` [PHA-516113] was run?
Answer: Its MIC is 2 µg/mL (≈ 3.97 µM).

Question: With `O=C(Nc1ccc(Br)cc1C(=O)O)c1cccc(S(=O)(=O)n2ccc3ccccc32)c1` [PHA-516116] as the compound, how does the MIC read?
Answer: Its MIC is 0.5 µg/mL (≈ 1 µM).

Question: Which “SA 9218 MIC” value does the source give for `O=C(Nc1ccc(Cl)cc1C(=O)O)c1cccc(C(=O)c2ccccc2)c1` [PHA-518226] here?
Answer: Its value is 2 µg/mL.

Question: `O=C(Nc1ccc([N+](=O)[O-])cc1C(=O)O)c1cccc(C(=O)c2ccccc2)c1` [PHA-519402] was tested. Which MIC did it give?
Answer: Its MIC is 0.5 µg/mL (≈ 1.28 µM).

Question: For `CC(=O)c1ccc(C(=O)Nc2ccc(Br)cc2C(=O)O)cc1` [PHA-520446], which MIC is on record?
Answer: The MIC was 16 µg/mL (≈ 44.2 µM).

Question: How did the MIC turn out when `O=C(Nc1ccc(Br)cc1C(=O)O)c1ccc(C(=O)c2ccccc2)cc1` [PHA-520447] was run?
Answer: The MIC was 1 µg/mL (≈ 2.36 µM).

Question: `O=C(Nc1ccc(Br)cc1C(=O)O)c1cccc(S(=O)(=O)N2CCc3ccccc32)c1` [PHA-520938] was tested. Which MIC did it give?
Answer: The MIC was 1 µg/mL (≈ 1.99 µM).

Question: With `O=C(Nc1ccc(Br)cc1C(=O)O)c1cccc(C(O)c2ccccc2)c1` (stereo not drawn) [PHA-521534] as the compound, how does the “SA 9218 MIC” value read?
Answer: Its value is 1 µg/mL.

Question: How did the “SA 9218 MIC” value turn out when `N#Cc1ccc(NC(=O)c2ccccc2)c(C(=O)O)c1` [PHA-521535] was run?
Answer: The value was greater than 128 µg/mL.

Question: With `CC(=O)c1cccc(C(=O)Nc2ccc(Br)cc2C(=O)O)c1` [PHA-522145] as the compound, how does the MIC read?
Answer: The MIC was 32 µg/mL (≈ 88.4 µM).

Question: For `CON=C(c1ccccc1)c1cccc(C(=O)Nc2ccc(Br)cc2C(=O)O)c1` [PHA-522146, 5-Bromo-2-({3-[(methoxyimino)(phenyl)methyl]benzoyl}amino)benzoic acid], which MIC is on record?
Answer: Its MIC is 0.5 µg/mL (≈ 1.1 µM).

Question: Which MIC does the source give for `N#Cc1ccc(NC(=O)c2cccc(S(=O)(=O)N3CCc4cc(Cl)ccc43)c2)c(C(=O)O)c1` [PHA-524523, 2-({3-[(5-Chloro-2,3-dihydro-1H-indol-1-yl)sulfonyl]benzoyl}amino)-5-cyanobenzoic acid] here?
Answer: The MIC was 0.125 µg/mL (≈ 0.259 µM).

Question: Which MIC does the source give for `N#Cc1ccc(NC(=O)c2cccc(C(=O)c3ccccc3)c2)c(C(=O)O)c1` [PHA-524524] here?
Answer: The MIC was 1 µg/mL (≈ 2.7 µM).

Question: `O=C(Nc1ccc(Br)cc1C(=O)O)c1cccc(C(=NO)c2ccccc2)c1` [PHA-524545] was tested. Which “SA 9218 MIC” value did it give?
Answer: Its value is 0.25 µg/mL.

Question: How did the MIC turn out when `O=C(Nc1ccc(Br)cc1C(=O)O)c1cccc(C#Cc2ccccc2)c1` [PHA-526578] was run?
Answer: The MIC was 2 µg/mL (≈ 4.76 µM).

Question: `O=C(Nc1ccc(Br)cc1C(=O)O)c1cccc(Sc2ccccc2)c1` [PHA-526580] was tested. Which MIC did it give?
Answer: Its MIC is 1 µg/mL (≈ 2.33 µM).

Question: For `N#Cc1ccc(NC(=O)c2ccccc2)c(C(=O)O)c1` [PHA-530685], which “SA 9218 MIC” value is on record?
Answer: Its value is 32 µg/mL.

Question: With `N#Cc1cc(C(=O)Nc2ccc(Br)cc2C(=O)O)cc(S(=O)(=O)N2CCc3ccccc32)c1` [PHA-530687] as the compound, how does the MIC read?
Answer: Its MIC is 8 µg/mL (≈ 15.2 µM).

Question: For `O=C(Nc1ccc(Br)cc1C(=O)O)c1cccc(CCc2ccccc2)c1` [PHA-530989], which MIC is on record?
Answer: The MIC was 4 µg/mL (≈ 9.43 µM).

Question: With `N#Cc1ccc(NC(=O)c2cccc(C(=NO)c3ccccc3)c2)c(C(=O)O)c1` [PHA-535548] as the compound, how does the MIC read?
Answer: The MIC was 0.25 µg/mL (≈ 0.649 µM).

Question: For `CON=C(c1ccccc1)c1cccc(C(=O)Nc2ccc(C#N)cc2C(=O)O)c1` [PHA-535549], which MIC is on record?
Answer: Its MIC is 0.25 µg/mL (≈ 0.626 µM).

Question: Which MIC does the source give for `N#Cc1ccc(NC(=O)c2cccc(Oc3ccccc3)c2)c(C(=O)O)c1` [PHA-535553] here?
Answer: The MIC was 1 µg/mL (≈ 2.79 µM).

Question: For `COc1ccc2c(ccn2S(=O)(=O)c2cccc(C(=O)Nc3ccc(C#N)cc3C(=O)O)c2)c1` [PHA-543139], which MIC is on record?
Answer: Its MIC is 0.125 µg/mL (≈ 0.263 µM).

Question: With `N#Cc1ccc(NC(=O)c2cccc(S(=O)(=O)N3CCCC3)c2)c(C(=O)O)c1` [PHA-543140] as the compound, how does the MIC read?
Answer: Its MIC is 1 µg/mL (≈ 2.5 µM).

Question: `N#Cc1ccc(NC(=O)c2cccc(S(=O)(=O)n3ccc4ccccc43)c2)c(C(=O)O)c1` [PHA-543141] was tested. Which MIC did it give?
Answer: Its MIC is 0.125 µg/mL (≈ 0.281 µM).

Question: With `N#Cc1ccc(NC(=O)c2cccc(S(=O)(=O)n3ccc4cc(Cl)ccc43)c2)c(C(=O)O)c1` [PHA-543681] as the compound, how does the MIC read?
Answer: Its MIC is 0.125 µg/mL (≈ 0.26 µM).

Question: How did the MIC turn out when `N#Cc1ccc(NC(=O)c2cccc(SC3CCCC3)c2)c(C(=O)O)c1` [PHA-546926] was run?
Answer: Its MIC is 0.5 µg/mL (≈ 1.36 µM).

Question: With `CC(Sc1cccc(C(=O)Nc2ccc(C#N)cc2C(=O)O)c1)c1ccccc1` (stereo not drawn) [PHA-547267] as the compound, how does the MIC read?
Answer: Its MIC is 0.125 µg/mL (≈ 0.311 µM).

Question: For `Cc1ccc(NC(=O)c2cccc(S(=O)(=O)N3CCc4cc(Cl)ccc43)c2)c(C(=O)O)c1` [PHA-552831], which MIC is on record?
Answer: The MIC was 1 µg/mL (≈ 2.12 µM).

Question: Which MIC does the source give for `CC1(C)CN(S(=O)(=O)c2cccc(C(=O)Nc3ccc(C#N)cc3C(=O)O)c2)c2ccccc21` [PHA-555027] here?
Answer: The MIC was 1 µg/mL (≈ 2.1 µM).

Question: Which MIC does the source give for `Cc1cc(C(=O)Nc2ccc(C#N)cc2C(=O)O)cc(S(=O)(=O)N2CCc3ccccc32)c1` [PHA-556214] here?
Answer: Its MIC is 1 µg/mL (≈ 2.17 µM).
